Results: US20250144067A1, “PERSONALIZED STARVATION THERAPY FOR CANCER” (Faeth Therapeutics, Inc., priority 2021, published 2025)
Structures can show the parent of a compound that is named as a salt. Where two headings read alike, the source gives them in different places.

How the values were obtained:
[1] = tested on: NCI-H292 lung cancer cells; test: FDA drug screening, complete media vs cholesterol-free media without statin (TABLE 1); assay type: cell-based, human
[2] = tested on: NCI-H292 lung cancer cells; test: FDA drug screening, complete media vs cholesterol-free media with simvastatin (TABLE 2); assay type: cell-based, human
[3] = Complete minus Cholesterol-free, >0 enhanced anti-cancer activity, about 0 neutral, <0 antagonist
[4] = NCI-H292 cells, cholesterol-free media without statin, FDA drug library screen
[5] = NCI-H292 cells, complete media, FDA drug library screen
[6] = NCI-H292 cells, cholesterol-free media with simvastatin 0.04 μM, FDA drug library screen (TABLE 2)
[7] = NCI-H292 cells, complete media, FDA drug library screen (TABLE 2)
[8] = complete media minus cholesterol-free media + simvastatin (0.04 μM), >0 enhanced anti-cancer activity, about 0 neutral, <0 antagonist
[9] = Complete minus Cholesterol-free, greater than 0 enhanced anti-cancer activity, about 0 neutral, below 0 antagonists
[10] = NCI-H292 cells in cholesterol-free media without statin
[11] = NCI-H292 cells in complete media
[12] = complete vs cholesterol-free media, >0 enhanced anti-cancer activity, about 0 neutral, <0 antagonist
[13] = NCI-H292 cells, FDA library drug in cholesterol-free media with simvastatin 0.04 μM
[14] = NCI-H292 cells, FDA library drug in complete media
[15] = complete media vs cholesterol-free media + simvastatin (0.04 μM), >0 enhanced anti-cancer activity, about 0 neutral, <0 antagonist
[16] = NCI-H292 cells, cholesterol-free media without statin
[17] = complete vs cholesterol-free media, greater than 0 enhanced anti-cancer activity, about 0 neutral, below 0 antagonists
[18] = NCI-H292 cells, FDA drug library screen, cholesterol-free media with simvastatin 0.04 μM
[19] = NCI-H292 cells, FDA drug library screen, complete media
[20] = complete media minus cholesterol-free media + simvastatin, >0 enhanced anti-cancer activity, about 0 neutral, <0 antagonist
[21] = NCI-H292 cells, cholesterol-free media with simvastatin 0.04 μM, cell growth value in FDA drug screen
[22] = NCI-H292 cells, complete media, cell growth value in FDA drug screen
[23] = Complete minus Cholesterol-free, […]
[24] = complete media vs cholesterol-free media + simvastatin (0.04 μM), […]
[25] = NCI-H292 cells, drug in cholesterol-free media with simvastatin 0.04 μM
[26] = NCI-H292 cells, drug in complete media

Compound: O=C(O)CCC(=O)Nc1ccc(S(=O)(=O)Nc2nccs2)cc1 [Succinylsulfathiazole]
- Difference [1, 3]: 0.03
- Cholesterol-free [1, 4]: 0.852
- Complete [1, 5]: 0.8836
- Cholesterol-free media + simvastatin (0.04 μM) [2, 6]: 1.231
- Complete Media [2, 7]: 1.191
- Difference [2, 8]: −0.04

Compound: Chlorpheniramine (maleate)
- Difference [1, 9]: −0.51
- Cholesterol-free [1, 10]: 1.451
- Complete [1, 11]: 0.9428
- Cholesterol-free media + simvastatin (0.04 μM) [2, 6]: 1.426
- Complete Media [2, 7]: 1.414
- Difference [2, 8]: −0.01

Compound: Clc1ccc2c(c1)C(N1CCNCC1)=Nc1ccccc1O2 [Amoxapine]
- Cholesterol-free [1, 4]: 1.3
- Complete [1, 5]: 1.39
- Difference [1, 12]: 0.09
- Cholesterol-free media + simvastatin (0.04 μM) [2, 13]: 1.586
- Complete Media [2, 14]: 1.017
- Difference [2, 15]: −0.57

Compound: CN1C(C(=O)Nc2ccccn2)=C(O)c2sccc2S1(=O)=O [Tenoxicam]
- Cholesterol-free [1, 16]: 1.354
- Complete ([1]; NCI-H292 cells, complete media): 0.9821
- Difference [1, 17]: −0.37
- Cholesterol-free media + simvastatin (0.04 μM) [2, 18]: 0.6836
- Complete Media [2, 19]: 0.8819
- Difference [2, 20]: 0.20

Compound: Disodium succinate
- Cholesterol-free [1]: 1.636
- Complete [1]: 0.8171
- Difference [1]: −0.82
- Cholesterol-free media + simvastatin (0.04 μM) [2]: 1.636
- Complete Media [2]: 1.676
- Difference [2]: 0.04

Compound: O=C(O[C@H]1C[N+]2(CCCOc3ccccc3)CCC1CC2)C(O)(c1cccs1)c1cccs1.[Br-] [Aclidinium (Bromide)]
- Cholesterol-free [1]: 1.253
- Complete [1]: 0.9873
- Difference [1]: −0.27
- Cholesterol-free media + simvastatin (0.04 μM) [2]: 0.8781
- Complete Media [2]: 0.7357
- Difference [2]: −0.14

Compound: C=C(CC)C(=O)c1ccc(OCC(=O)O)c(Cl)c1Cl [Ethacrynic acid]
- Cholesterol-free [1, 4]: 0.8126
- Complete [1, 5]: 0.956
- Difference [1, 12]: 0.14
- Cholesterol-free media + simvastatin (0.04 μM) [2, 21]: 1.155
- Complete Media [2, 22]: 1.268
- Difference [2, 20]: 0.11

Compound: Baricitinib (phosphate)
- Difference [1, 23]: −0.20
- Cholesterol-free [1, 16]: 0.7762
- Complete ([1]; NCI-H292 cells, complete media): 0.5811
- Cholesterol-free media + simvastatin (0.04 μM) [2, 18]: 0.6632
- Complete Media [2, 19]: 0.5619
- Difference [2, 24]: −0.10

Compound: Nc1nc2[nH]cc(CCc3ccc(C(=O)N[C@@H](CCC(=O)O)C(=O)O)cc3)c2c(=O)[nH]1 [Pemetrexed (disodium hemipenta hydrate)]
- Cholesterol-free [1, 4]: 0.09445
- Complete [1, 5]: 0.1693
- Difference [1, 12]: 0.07
- Cholesterol-free media + simvastatin (0.04 μM) [2, 6]: 0.2685
- Complete Media [2, 7]: 0.2746
- Difference [2, 8]: 0.01

Compound: O=C(O)c1ccccc1 [Benzoic acid]
- Cholesterol-free [1]: 1.119
- Complete [1]: 1.063
- Difference [1]: −0.06
- Cholesterol-free media + simvastatin (0.04 μM) [2]: 1.277
- Difference [2]: −0.11

Compound: Cn1c(Cn2ccc(C(F)(F)F)c(Oc3cc(Cl)cc(C#N)c3)c2=O)n[nH]c1=O [Doravirine]
- Difference [1, 3]: 0.06
- Cholesterol-free [1, 4]: 0.8163
- Complete [1, 5]: 0.8734
- Cholesterol-free media + simvastatin (0.04 μM) [2, 18]: 1.425
- Complete Media [2, 19]: 1.562
- Difference [2, 20]: 0.14

Compound: CNC(=O)c1cc(Oc2ccc(NC(=O)Nc3ccc(Cl)c(C(F)(F)F)c3)c(F)c2)ccn1 [Regorafenib (monohydrate)]
- Cholesterol-free [1, 16]: 1.026
- Complete ([1]; NCI-H292 cells, complete media): 0.6282
- Difference [1, 17]: −0.40
- Cholesterol-free media + simvastatin (0.04 μM) [2, 13]: 1.311
- Complete Media [2, 14]: 0.728
- Difference [2, 15]: −0.58

Compound: Triamcinolone (acetonide)
- Difference [1, 3]: −0.04
- Cholesterol-free [1, 4]: 0.5663
- Complete [1, 5]: 0.5288
- Cholesterol-free media + simvastatin (0.04 μM) [2, 6]: 0.6359
- Complete Media [2, 7]: 0.588
- Difference [2, 8]: −0.05

Compound: CNCc1ccc(-c2[nH]c3cc(F)cc4c3c2CCNC4=O)cc1 [Rucaparib]
- Difference [1, 3]: −0.02
- Cholesterol-free [1, 4]: 0.9041
- Complete [1, 5]: 0.881
- Cholesterol-free media + simvastatin (0.04 μM) [2, 13]: 1.04
- Complete Media [2, 14]: 0.7044
- Difference [2, 15]: −0.34

Compound: CC(=O)c1c(C)c2cnc(Nc3ccc(N4CCNCC4)cn3)nc2n(C2CCCC2)c1=O.O=S(=O)(O)CCO [Palbociclib (isethionate)]
- Difference [1, 3]: −0.25
- Cholesterol-free [1, 16]: 0.905
- Complete ([1]; NCI-H292 cells, complete media): 0.6502
- Cholesterol-free media + simvastatin (0.04 μM) [2, 6]: 0.7514
- Complete Media [2, 7]: 0.6914
- Difference [2, 8]: −0.06

Compound: [O-][n+]1ccccc1[S-].[O-][n+]1ccccc1[S-].[Zn+2] [Zinc Pyrithione]
- Cholesterol-free [1]: 0.0139
- Complete [1]: 0.007475
- Difference [1]: −0.01
- Cholesterol-free media + simvastatin (0.04 μM) [2]: 0.004251
- Complete Media [2]: −0.04835
- Difference [2]: −0.05

Compound: CC(=O)Oc1cc2c(s1)CCN(C(C(=O)C1CC1)c1ccccc1F)C2 (stereo not drawn) [Prasugrel (hydrochloride)]
- Cholesterol-free [1, 4]: 0.9393
- Complete [1, 5]: 1.044
- Difference [1, 12]: 0.10
- Cholesterol-free media + simvastatin (0.04 μM) [2, 25]: 1.213
- Complete Media [2, 26]: 1.05
- Difference [2, 15]: −0.16

Compound: Nc1cc(N2CCCCC2)nc(N)[n+]1[O-] [Minoxidil]
- Difference [1, 3]: −0.20
- Cholesterol-free [1, 16]: 1.202
- Complete ([1]; NCI-H292 cells, complete media): 1.002
- Cholesterol-free media + simvastatin (0.04 μM) [2, 13]: 1.841
- Difference [2, 15]: −0.68

Compound: COS(=O)(=O)[O-].C[N+]1(C)CCC(=C(c2ccccc2)c2ccccc2)CC1 [Diphenmanil (methylsulfate)]
- Cholesterol-free [1, 4]: 0.8176
- Complete [1, 5]: 0.9244
- Difference ([1]; complete vs cholesterol-free media, […]): 0.11
- Cholesterol-free media + simvastatin (0.04 μM) [2, 13]: 2.109
- Complete Media [2, 14]: 1.508
- Difference [2, 24]: −0.60

Compound: C[N+]1(C)CCC(OC(=O)C(O)(c2ccccc2)C2CCCC2)C1 (stereo not drawn) [Glycopyrrolate]
- Difference [1, 3]: 0.02
- Cholesterol-free [1, 4]: 0.8111
- Complete [1, 5]: 0.8296
- Cholesterol-free media + simvastatin (0.04 μM) [2, 18]: 2.314
- Difference [2, 8]: −1.08

Compound: CCC(=O)O[C@]1(C(=O)CCl)[C@@H](C)C[C@H]2[C@@H]3CCC4=CC(=O)C=C[C@]4(C)[C@@]3(F)[C@@H](O)C[C@@]21C [Clobetasol propionate]
- Difference [1, 3]: −0.20
- Cholesterol-free [1, 16]: 1.481
- Complete ([1]; NCI-H292 cells, complete media): 1.28
- Cholesterol-free media + simvastatin (0.04 μM) [2, 21]: 0.7256
- Complete Media [2, 22]: 0.7474
- Difference [2, 20]: 0.02

Compound: O=C(NC1CCNCC1)[C@@H]1CC[C@@H]2CN1C(=O)N2OS(=O)(=O)O [Relebactam]
- Difference [1, 9]: −0.59
- Cholesterol-free [1, 10]: 1.438
- Complete [1, 11]: 0.845
- Cholesterol-free media + simvastatin (0.04 μM) [2, 21]: 0.885
- Complete Media [2, 22]: 0.9451
- Difference [2, 20]: 0.06

Compound: CC=CC(=O)N(CC)c1ccccc1C [Crotamiton]
- Difference [1, 23]: −0.17
- Cholesterol-free ([1]; NCI-H292 cells, FDA drug library screen, cholesterol-free media without statin): 1.084
- Complete [1, 19]: 0.9155
- Cholesterol-free media + simvastatin (0.04 μM) [2, 25]: 1.259
- Complete Media [2, 26]: 1.088
- Difference [2, 24]: −0.17

Compound: C[C@@H]1O[C@@H]1P(=O)(O)O [Fosfomycin (calcium)]
- Difference [1, 3]: −0.27
- Cholesterol-free [1, 16]: 1.27
- Complete ([1]; NCI-H292 cells, complete media): 1.001
- Cholesterol-free media + simvastatin (0.04 μM) [2, 25]: 1.093
- Complete Media [2, 26]: 0.8864
- Difference [2, 15]: −0.21

Compound: N[C@H](C(=O)O)[C@H](O)c1ccc(O)c(O)c1 [Droxidopa]
- Cholesterol-free [1, 4]: 0.9972
- Complete [1, 5]: 1.24
- Difference [1, 12]: 0.24
- Cholesterol-free media + simvastatin (0.04 μM) [2, 25]: 1.236
- Complete Media [2, 26]: 1.023
- Difference [2, 15]: −0.21
